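How tested: cells in 96-well plates exposed to compound for 48 hours at five concentrations. Here, GI50 denotes the concentration required for 50% inhibition of growth.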 Activity calls are given as the source filed them. Rule as the data show it: active = GI50 up to about 1.1 µM and inactive = higher.

What all share (assay): NCI tumour cell line growth inhibition, 48 h
The subject of assay [1] is CAKI-1.
For assay [2], the system named is SW-620.
The subject of assay [3] is 786-0.
The test system of assay [4] is SN12C.
The test system of assay [5] is SK-OV-3.
In assay [6] the test system is KM12.
Assay [7] concerns OVCAR-4.
Assay [8] concerns HL-60.
The subject of assay [9] is HT-29.
Assay [10] relates to SF-268.
In assay [11] the test system is UO-31.
In assay [12] the test system is RPMI-8226.
Assay [13] deals with U-251.
Assay [14] has as its system RXF 393.

Take `CC1CC2C(=O)N(c3ccccc3)C(=O)C2c2c1c1ccccc1n2Cc1ccccc1` (stereo unspecified): the GI50 was > 100 µM (inactive) in assay [1]; > 100 µM (inactive) in [2]; > 100 µM (inactive) in assay [3]; > 100 µM (inactive) in assay [4]; > 100 µM (inactive) in [5]; 7.52 µM (inactive) in [6]. Also, the GI50 in assay [7] is > 100 µM (inactive); in assay [8], 10.5 µM (inactive); in [9], > 100 µM (inactive); in assay [10], > 100 µM (inactive); in assay [11], > 100 µM (inactive); in assay [12] it was > 100 µM (inactive).
Take `CCOC(=O)/C(Br)=C1\OC(=O)c2ccccc2-c2ccccc21`: the GI50 in assay [1] was 54.3 µM (inactive); in assay [2], 42.5 µM (inactive); in [3], 52.8 µM (inactive); in assay [4], 37.4 µM (inactive); in [5] it was 34 µM (inactive); in assay [6], 34.7 µM (inactive). In addition, the GI50 in assay [8] is 13.3 µM (inactive); in assay [9] it was 33.2 µM (inactive); in assay [10], 43.8 µM (inactive); in assay [11] it was 38.7 µM (inactive); in assay [13] it was 38.5 µM (inactive); in assay [12], 27.9 µM (inactive).
Consider `CCOC(=O)N1CCC(=O)C(CNC23CC4CC(CC(C4)C2)C3)C1` (stereo unspecified), for which the GI50 was > 10 µM (inactive) in [1]; 19.8 µM (inactive) in assay [2]; 15.6 µM (inactive) in assay [3]; > 100 µM (inactive) in [4]; > 100 µM (inactive) in [5]; > 100 µM (inactive) in assay [6]. The GI50 in assay [14] was 17.2 µM (inactive); in assay [7] it was 15.1 µM (inactive); in [8], 22.2 µM (inactive); in [9], 22.4 µM (inactive); in assay [10], > 100 µM (inactive); in [11], 51.5 µM (inactive). Besides, the GI50 in assay [13] is > 100 µM (inactive).
For `CCOC(=O)CC[C@H](NC(=O)c1nc[nH]c1[N+](=O)[O-])C(=O)OCC`, the GI50 in assay [3], in assay [4], in [5], in [6], in assay [14] and in assay [7] was > 100 µM (inactive) throughout. The GI50 in [8], in assay [10], in assay [11], in assay [13] and in assay [12] was > 100 µM (inactive) each time.
On to `CN(C)C(=S)/N=c1\ss/c(=N\c2ccccc2)n1-c1ccccc1`, for which the GI50 in assay [1] is 34.3 µM (inactive); in assay [2], 25 µM (inactive); in [3], 16.1 µM (inactive); in [4], 49.5 µM (inactive); in assay [5] it was 40.6 µM (inactive); in assay [14], 16.3 µM (inactive). The GI50 in assay [7] was 0.275 µM (active); in assay [8], 24.6 µM (inactive); in assay [9], 0.154 µM (active); in [10] it was 21.6 µM (inactive); in assay [11], 32.9 µM (inactive); in [13] it was 24.7 µM (inactive).
`OC1OCC(COc2cc(Cl)c(Cl)cc2Cl)OC1O` (stereo unspecified): the GI50 in [1] was 33.1 µM (inactive); in [2], 19.1 µM (inactive); in assay [3] it was 77.1 µM (inactive); in assay [4], 38.2 µM (inactive); in [5] it was 88.1 µM (inactive); in assay [6], 35.6 µM (inactive). Moreover, the GI50 in assay [7] was 31.8 µM (inactive); in assay [8], 26.2 µM (inactive); in assay [9], 65.8 µM (inactive); in assay [10], 68.2 µM (inactive); in [11], 41.9 µM (inactive); in [13], 36.6 µM (inactive). The GI50 in [12] is 26.7 µM (inactive).
For the compound `NC(=O)N/N=C(\CCC(=O)N(Cc1ccccc1)Cc1ccccc1)CC(=O)c1ccc(F)cc1`, the GI50 in assay [1] is > 100 µM (inactive); in assay [2], > 100 µM (inactive); in assay [3], 27.2 µM (inactive); in assay [4], > 100 µM (inactive); in assay [5] it was > 100 µM (inactive); in assay [6], > 100 µM (inactive). For the same compound, the GI50 in assay [14] is 31.6 µM (inactive); in [7] it was > 100 µM (inactive); in [8], > 100 µM (inactive); in [9], > 100 µM (inactive); in [10], > 100 µM (inactive); in assay [11], > 100 µM (inactive). The GI50 in [13] was > 100 µM (inactive).
With `O=C(CSc1nnc(-c2ccc(/N=C\c3ccc(Cl)cc3)cc2)o1)Nc1ccccc1[N+](=O)[O-]`, the GI50 is > 100 µM (inactive) in [2]; > 100 µM (inactive) in assay [3]; > 100 µM (inactive) in assay [4]; > 100 µM (inactive) in [5]; > 100 µM (inactive) in assay [6]; 94.6 µM (inactive) in assay [14]. In addition, the GI50 in assay [7], in assay [8], in [9], in [10], in assay [11] and in [13] was > 100 µM (inactive) each time. The GI50 in assay [12] was > 100 µM (inactive).
Regarding `O=C(O)CSc1nnc(-c2ccc(O)cc2)[nH]1`, the GI50 in assay [1] is > 100 µM (inactive); in assay [2], > 100 µM (inactive); in [3] it was > 100 µM (inactive); in assay [4], > 10 µM (inactive); in assay [5], > 100 µM (inactive); in [6] it was > 100 µM (inactive). Also, the GI50 in assay [7], in assay [8], in [9], in assay [10], in assay [11] and in assay [13] was > 100 µM (inactive) each time. In addition, in [12], the GI50 was > 100 µM (inactive).
`COc1ccc(OCC(=O)O)c2c1CCC(C(C)C)C2=O` (stereo unspecified): the GI50 in assay [1], in assay [2], in assay [3], in assay [5], in [6] and in assay [7] was > 100 µM (inactive) each time. Also, the GI50 in assay [8], in [9], in [11], in [13] and in assay [12] was > 100 µM (inactive) in each case.
Turning to `Cc1nc2ccccc2c(=O)[nH]1`, the GI50 in [2], in [3], in assay [4], in assay [5], in assay [6] and in [14] was > 100 µM (inactive) in each case. Also, the GI50 in assay [7], in assay [8], in [9], in assay [10], in assay [11] and in assay [13] was > 100 µM (inactive) in each case. Also, the GI50 in [12] is > 100 µM (inactive).
